Measurements as given in patent publication US20150329864A1, “DESIGN OF OLIGONUCLEOTIDE ANALOGS AS THERAPEUTIC AGENTS” (SPRING BANK PHARMACEUTICALS, INC., priority 2010, published 2015).
Where two headings read alike, the source gives them in different places.

Columns and labels:
human hepatitis B virus = experiment: Anti-HBV activity in the HBV transgenic mouse model, oral administration; type: in vivo, transgenic mice; settings: for Liver HBV DNA Southern blot (pg/μg mean ± sd): p.o.
Procedure: Compound 6k was evaluated for anti-HBV activity in the transgenic mouse model of HBV infection. Male transgenic mouse infected with HBV, with age ranging from 78 to 108 days were used. Compound 6k was initially evaluated at a single dose of 300 mg/kg, administered daily for 14 days by oral gavage. The compounds were administered in citric acid and adefovir dipivoxil was used as a positive control. A control group which received vehicle was used a negative control. Following the treatment, mice were sacrificed and liver tissue analyzed for HBV DNA using Southern blot analysis. The data was statistically evaluated using Kruskall-Wallis non-parametric ANOVA.
(a) Male and female transgenic mice (founder 1.3.32) were infected with human hepatitis B virus. Following infection, animals were orally administered Compound 6k, or a placebo of 0.05 M citric acid, pH 2.0 once daily for 14 days. Dosage was 300 mg/kg/d for Compound 6k. The positive control, ADV, was administered at 10 mg/kg/d.
Male and female transgenic mice (founder 1.3.32) were infected with human hepatitis B virus. Following infection, animals were orally administered Compound 6k, or a placebo of 0.05 M citric add, pH 2.0 once daily for 14 days. Dosages were 100, 10.5 and 1 mg/kg/d for Compound 6K. The positive control, ADV, was administered at 10 mg/kg/d.

[1] = tested on: IRF3-luciferase reporter gene (activation of NOD2); experiment: IRF3-luciferase reporter induction in HLE A549 cells endogenously expressing NOD2; type: cell-based, human; settings: for Fold induction of IRF3 luciferase activity: 1 µM; for fold induction at 1 µM: Homo sapiens, A549, 12 h
Procedure: In the primary assays, di- and trinucleotide compounds were tested for the induction of IRF3 expression in HLE A549 cells, which are known to express NOD2.
HLE cells normally endogenously express NOD2. To determine if short oligonucleotide compounds activate NOD2, HLE cells transfected with IRF3 plasmid were employed. IRF3-luciferase transfected cells were incubated with either DMSO only (UT) or test compounds (1 μM). Following 12 h incubation, Luciferase activity was measured using Dual-Luciferase Reporter Assay System (Promega) according to the manufacturer's protocol. Transection efficiency was normalized by measuring the expression of renilla Luciferase. Luciferase units (i.e., fold induction) were measured by standard methodology.

[2] = tested on: Human Respiratory Syncytial Virus (RSV); experiment: RSV infectivity, plaque assay; type: cell-based; settings: human lung epithelial cells, RSV 0.5 MOI, 24 h post-infection
Procedure: (A) RSV infectivity in untreated (UT) and SMNH-treated cells. Human lung epithelial cells were infected with RSV (0.5 MOI) in the absence (DMSO only) or presence of various SMNH compounds (1 μM). At 24 h post-infection, the medium supernatant was collected and the viral titer in the supernatant was assayed by plaque assay analysis using CV-1 cell monolayer, 100% RSV infection represents viral titer from cells incubated with DMSO only (UT cells). The values represent mean±S.D. for three independent determinations. S.D. is shown as error bars.
(B) A typical plaque assay showing RSV infectivty in UT and SMNH-treated cells. Culture supernatant from RSV infected cells (+/− SMNH) was added to CV-1 cells at a dilution of […]. Plaques were observed and quantitated on methylcellulose after crystal violet staining.

[3] = tested on: HBV wild type and drug resistant strains; experiment: HepG2.2.15 HBV assay; type: cell-based; settings: Hepatitis B virus, HepG2.2.15, read-out: EC50, inhibition of intracellular HBV replication
Procedure: Selected compounds were evaluated in in vitro cell-based HepG2.2.15 HBV assay.
Antiviral analysis. For the antiviral analyses, confluent cultures of 2.2.1.5 cells were maintained on 96-well flat-bottomed tissue culture plates in RPMI1640 medium with 2% fetal bovine serum. Cultures (6 per each test concentration on two replicate plates) were treated with 9 consecutive daily doses of the test compounds. Medium was changed daily with fresh test compounds. HBV nucleic acid and protein levels were measured 24 hours after the last treatment. Extracellular (virion) HBV DNA levels were assessed by quantitative blot hybridization. Intracellular HBV DNA levels were measured by quantitative Southern blot hybridization.

[4] = tested on: HCV replicon AVA5 (sub-genomic (CON1), genotype 1b); experiment: Primary anti-HCV assay, replicon cell line AVA5; type: cell-based; settings: 3-day assay
Procedure: Antiviral activity against HCV was assessed in a 3-day assay (Okuse, et al., 2005; Antiviral. Res. 65:23; Korba, et al., 2008, Antiviral Res. 77:56) using the stably-expressing HCV replicon cell line, AVA5 (sub-genomic (CON1), genotype 1b) (Blight, et al., 2000; Science 290:1972) maintained as sub-confluent cultures on 96-well plates. Antiviral activity was determined by blot hybridization analysis of intracellular HCV RNA (normalized to the level of cellular B-actin RNA in each culture sample). Cytotoxicity was assessed by neutral red dye uptake in cultures maintained in parallel plates.
EC50, EC90, and CC50 values were calculated by linear regression analysis (MS EXCEL®, QuattroPro®) using data combined from all treated cultures Korba & Gerin, 1992, Antivir. Res. 19:55; Okuse, et al., 2005, Antivir. Res. 65:23). Standard deviations for EC50 and EC90 values are calculated from the standard errors generated by the regression analyses, EC50 and EC90 are drug concentrations at which a 2-fold, or a 10-fold depression of intracellular HCV RNA (relative to the average levels in untreated cultures), respectively was observed. […] Recombinant human interferon 2b (PBL laboratories, Inc.) is used as an assay control.

[5] = In vitro cytotoxicity, MTT assay; type: cell-based; settings: cattle (MDBK), African green monkey (Vero), human (HFF)
Procedure: Compounds 5 and 6k have excellent safety profile with CC50>1000 micromolar in a number of cell lines. Standard MTT assays were performed in 96-well plates using the Promega CellTiter96 Non-radioactive Cell Proliferation Assay Kit in conjunction with a 96-well Plate Reader (ThermoMax, Molecular devices), and MDBK, Vero, and HFF cell lines (obtained from ATCC). Several controls were employed including the nucleoside analogs 3TC, AZT, and ddC, as well as, media without drugs. SDS was used as a positive cytotoxic control. The compounds were tested in triplicate at concentrations of 100, 300, and 1000 μM. Following a 24-hour incubation of cells with the test substance, the MTT assay was carried out.

[6] = 300 mg/kg/d, oral, once daily 14 days
[7] = 1 μM, 12 h, HLE A549 cells, SMNH treated vs. untreated cells

CO[C@H]1C(OP(=O)(OC[C@H]2O[C@@H](n3cnc4c(N)ncnc43)CC2O)SCOC(=O)OC(C)C)[C@@H](CO)O[C@H]1n1ccc(=O)[nH]c1=O (stereo partly drawn) [Compound 6k]
Liver HBV DNA Southern blot (pg/μg mean ± sd) (human hepatitis B virus; 1 mg/kg/d, qd × 14 d): 16.4 ± 14.7 (6) pg/μg | Liver HBV DNA Southern blot (pg/μg mean ± sd) (human hepatitis B virus; 10 mg/kg/d, qd × 14 d (Table 2)): 3.4 ± 4.4 (7) pg/μg | Liver HBV DNA Southern blot (pg/μg mean ± sd) (human hepatitis B virus; 100 mg/kg/d, qd × 14 d): 7.2 ± 8.9 (6) pg/μg | reduction of liver HBV DNA compared to untreated control (human hepatitis B virus; 300 mg/kg daily for 14 days by oral gavage): up to 2 log | Liver HBV RNA (log transcripts ± sd) (human hepatitis B virus; [6]): 10.8 ± 0.4 log transcripts | QPCR Liver HBV DNA (pg/μg mean ± sd) (human hepatitis B virus; [6]): 13.3 ± 12 pg/µg | Southern blot Liver HBV DNA (pg/μg mean ± sd) (human hepatitis B virus; 300 mg/kg/d, oral, once daily 14 days (Table 1)): 5.7 ± 3.2 pg/µg | Liver HBV DNA Southern blot (pg/μg mean ± sd) (human hepatitis B virus; 300 mg/kg/d, qd × 14 d (Table 2)): 4.8 ± 4.4 (2) pg/μg | EC50 when administered orally to a hepatitis B transgenic mouse model (human hepatitis B virus; oral): approximately 10 mg/kg | Fold induction of IRF3 luciferase activity [1, 7]: 22 fold | fold induction at 1 µM ([1]; read-out: Fold induction of IRF3 luciferase activity, 1 μM, 12 h, HLE A549 cells, SMNH treated vs. untreated cells): 15 to 20 | inhibition at 1 µM ([2]; human respiratory syncytial virus, Epithelial cell, 24 h): 60 to 80% | EC50 [3]: 0.3 to 2 µM | EC90, 10-fold depression of intracellular HCV RNA [4]: about 8 micromolar | CC50 at 24 h ([5]; MTT, 24-hour incubation, tested at 100, 300, and 1000 μM, read-out: CC50): > 1000 µM

CO[C@H]1C(OP(=O)(S)OC[C@H]2O[C@@H](n3cnc4c(N)ncnc43)CC2O)[C@@H](CO)O[C@H]1n1ccc(=O)[nH]c1=O (stereo partly drawn) [Compound 5, 3-dApsU2′-OMe]
Fold induction of IRF3 luciferase activity [1, 7]: 25 fold | fold induction at 1 µM ([1]; 1 μM, 12 h, HLE A549 cells, SMNH treated vs. untreated cells, read-out: Fold induction of IRF3 luciferase activity): 15 to 20 | % inhibition of RSV at 1 μM ([2]; 1 µM): 82% | EC50 [3]: 0.3 to 2 µM | EC50 ([4]; Hepatitis C virus, Ava5, 72 h): ~3 µM | CC50 at 24 h [5]: > 1000 µM
